Data from PubChem BioAssay (NCI).
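Cells were grown in 96-well plates and exposed to each compound for 48 hours at five concentrations; endpoints were interpolated linearly between bracketing concentrations, or set to the highest concentration if not reached. Abbreviation: GI50, concentration required for 50% inhibition of growth. The concentration for full growth arrest is given as TGI.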

Legend:
Assay in all cases: NCI tumour cell line growth inhibition, 48 h
[1] = test system: MOLT-4 leukemia
[2] = test system: NCI-H226 lung
[3] = test system: SK-MEL-2 melanoma
[4] = test system: CAKI-1 renal
[5] = test system: A498 renal
[6] = test system: CCRF-CEM leukemia
[7] = test system: LOX IMVI melanoma
[8] = test system: 786-0 renal
[9] = test system: MALME-3M melanoma
[10] = test system: NCI-H460 lung

| SMILES | GI50 [1] [µM] | TGI [1] [µM] | GI50 [2] [µM] | TGI [2] [µM] | GI50 [3] [µM] | TGI [3] [µM] | GI50 [4] [µM] | TGI [4] [µM] | GI50 [5] [µM] | TGI [5] [µM] | GI50 [6] [µM] | TGI [6] [µM] | GI50 [7] [µM] | TGI [7] [µM] | GI50 [8] [µM] | TGI [8] [µM] | GI50 [9] [µM] | TGI [9] [µM] | GI50 [10] [µM] | TGI [10] [µM] |
| --- | --- | --- | --- | --- | --- | --- | --- | --- | --- | --- | --- | --- | --- | --- | --- | --- | --- | --- | --- | --- |
| Cn1cncc1[C@@](N)(c1ccc(Cl)cc1)c1ccc2c(c1)c(-c1cccc(Cl)c1)cc(=O)n2C | 2.33 | 7.97 | 5.98 | 21.5 | 1.39 | 4.99 | 3.08 | 14.7 | 0.887 | 17.2 | 2.54 | 18.8 | 1.34 | 5.36 | 3.08 | 14 | 0.901 | 12.1 | 1.97 | 11.9 |
| Cn1cc(C2=C(c3cccc4ccccc34)C(=O)NC2=O)c2ccccc21 | 7.9 | > 22.5 | 7.7 | > 25 | 7.33 | 18.6 | 5.31 | > 22.9 | 6.76 | 22.5 | 8.3 | 24.5 | 6.96 | > 25 | 7.99 | > 25 | 9.45 | 24.2 | 8.2 | > 25 |
| Cc1[nH]c2ccccc2c1C1Cc2ccccc2N1C(=O)/C=C/C=C/c1ccccc1 (stereo not drawn) | – | > 100 | – | > 100 | – | > 100 | – | > 100 | – | > 100 | – | > 100 | – | > 100 | – | > 100 | – | > 100 | – | > 100 |
| CCOc1cccc(/C=N/NC(=O)c2ccc(Nc3ccnc(C(F)(F)F)c3)cc2)c1O | 0.244 | – | 2.08 | 22.5 | 3.13 | > 45.4 | 1.36 | > 100 | 4.65 | > 58 | 0.332 | 8.36 | 0.6 | 24.5 | 0.951 | > 94.3 | 2.29 | > 47.8 | 0.492 | 13.6 |
| CC[C@@H](C(=O)[C@@H](C)[C@@H](O)[C@H](C)[C@@H]1O[C@@H]([C@@H](CC)C(=O)O)CC[C@@H]1C)C1O[C@]2(C=CC(=O)[C@]3(CC[C@@](C)([C@H]4CC[C@](O)(CC)[C@H](C)O4)O3)O2)[C@H](C)C[C@@H]1C (stereo partly drawn) | 1.42 | 6.3 | 1.06 | 9.77 | 1.04 | 7.03 | 0.765 | 11.8 | 0.0631 | 0.877 | 0.278 | 9.3 | 0.71 | 13.8 | 0.987 | 14.5 | 0.163 | 0.774 | 0.408 | 11.3 |
| Cc1cc(O)cc2oc(=O)c3c(O)cc(O)cc3c12 | – | 31.2 | – | 91.8 | – | > 100 | – | 90 | – | > 100 | – | > 100 | – | 48.1 | – | > 100 | – | > 100 | – | 30.8 |
| C1=Cc2ccccc2Nc2ccccc21 | > 100 | > 100 | > 100 | > 100 | > 100 | > 100 | > 100 | > 100 | > 100 | > 100 | > 100 | > 100 | > 100 | > 100 | > 100 | > 100 | > 100 | > 100 | > 100 | > 100 |
| COc1cc(-c2nc(Nc3nc4ccccc4[nH]3)nc(N)c2C#N)cc(OC)c1OC | 18.2 | > 100 | 32.7 | > 89.3 | 2.69 | 34 | 6.04 | > 60.6 | 0.424 | 22 | 6.17 | > 100 | 6.37 | 41.4 | 20.2 | > 100 | 21.7 | > 80.1 | 1.77 | > 54.2 |
| O=C1CC(c2ccc(N3CCOCC3)cc2)(c2ccsc2)NC(=O)C1Sc1ccccc1Cl (stereo not drawn) | 46.9 | > 100 | > 100 | > 100 | 49.3 | > 100 | 28.4 | > 100 | 10.4 | > 100 | 6 | > 100 | 31.5 | > 100 | 6.53 | > 100 | > 100 | > 100 | 13.5 | > 100 |
| C/C(CC(=O)Nc1ccc(Cl)c(Cl)c1)=N/NC(=O)C[n+]1ccccc1 | – | > 100 | – | > 100 | – | > 100 | – | > 100 | – | > 100 | – | > 100 | – | 37.1 | – | > 100 | – | > 100 | – | > 100 |
| O=C(CN1CCN(c2ncnc3ccccc23)CC1)Nc1ccc(Cl)cc1C(=O)c1ccccc1Cl | 0.472 | – | 1.15 | 6.26 | 0.723 | 2.67 | 1.46 | 7.01 | 1.5 | 3.69 | 0.791 | > 43.8 | 0.207 | 0.471 | 0.356 | 12.3 | 0.289 | 2.52 | 0.598 | 11.6 |
| Cc1ccc([N+](=O)[O-])c2c(NCCNC(=O)Cn3ccnc3[N+](=O)[O-])ccnc12 | – | > 100 | – | 88 | – | > 100 | – | > 100 | – | > 100 | – | > 100 | – | > 100 | – | > 100 | – | 89.1 | – | > 100 |
| Cn1nccc1Nc1nccc(-c2cc3c(s2)C(C)(C)N(CCN2CCOCC2)C3=O)n1 | 25.7 | > 100 | 20.2 | > 100 | 0.402 | 6.74 | 6.66 | > 100 | 0.659 | 5.99 | 23.4 | > 100 | 0.734 | > 100 | 14.7 | > 100 | 0.183 | > 100 | 21.4 | > 100 |
| Cc1c(Cl)ccc2c1NC(=O)C2(O)C(C(=O)c1ccccc1)c1ccccc1 (stereo not drawn) | – | 76.7 | – | > 100 | – | > 100 | – | > 100 | – | 70.1 | – | 73.8 | – | > 100 | – | > 100 | – | > 100 | – | > 100 |
